Measurements published in patent US11008325B2, “Inhibitors of cancer invasion, attachment, and/or metastasis” (VIRGINIA COMMONWEALTH UNIVERSITY, priority 2016, dated 2021).

What was measured:
[1] = tested on: Mcl-1, Bcl-xL, Bid, MT1-MMP-PEX domain, IL20R, RKIP, Jnk2, Ubc13, SIAH1, Ship2-SAM; experiment: binding to panel of protein-protein interaction proteins; conditions: 50 μM, 1:1 ligand/protein ratio
Method: In addition, the molecules are tested against a series of proteins available in the laboratory involved in protein-protein interactions including Mcl-1, Bcl-xL, Bid, MT1-MMP-PEX domain, IL20R, RKIP, Jnk2 (JIP-binding site Met labeled), Ubc13, SIAH1, and Ship2-SAM. […] In designing compounds using elements of the libraries, particular emphasis will be put on drug-like properties of the compounds. […] Additionally, the MTD and PK properties on selected compounds prior to their eventual evaluations in vivo in will be addressed. Preliminarily, PK studies with 113B7 indicate that the compound is stable and long-lived with nearly 100% bioavailability when administered IP (FIG. 53).

ImPHFA cells = experiment: clonogenic radiosurvival (colony formation); format: cell-based, human; conditions: 50 μM PDZ1i 2 h prior to radiation, 14 d
Method: (§1) FIGS. 8A-8D. PDZ1i produces similar effects to mda-9/syntenin knockdown post-radiation. FIG. 8A. ImPHFA and U87 cells were treated with 50 μM PDZ1i 2 h prior to radiation and analyzed for colony formation after 14 d. FIG. 8B. U87 cells were treated with 50 μM PDZ1i 2 h prior to radiation and analyzed via MTT assay after 24 h. FIG. 8C. U87 cells were pretreated with 50 μM PDZ1i 2 h prior to radiation and subsequently seeded in a trans-well Matrigel invasion assay and stained after 24 h. Invasion was quantified from 5 random fields in FIG. 8D. Error bars=±s.d. *p<0.05, **p<0.01.
(§2) Clonogenic radiosurvival experiments were carried out as described previously (4,7). Briefly, cells were diluted, seeded on 6-cm dishes, and after the cells attached, treated with DMSO or PDZ1i (12.5, 25, or 50 μM) in the medium for 2 h before irradiation. Cells were incubated overnight, and the medium changed to nondrug containing medium 16 h postirradiation. Cells were incubated further for 14 days, stained with 2% Giemsa solution, and colonies consisting of 50 or more were counted. Cell viability was assessed through MTT analysis as described previously (8).

U87 cells [2] = experiment: clonogenic radiosurvival (colony formation); format: cell-based, human; conditions: 50 μM PDZ1i 2 h prior to radiation, 14 d
Method: as §1, §2

[3] = tested on: Im-PHFA cells overexpressing MDA-9/Syntenin; experiment: trans-well Matrigel invasion assay; format: cell-based, human; conditions: after MDA-9/Syntenin overexpression
Method: (§3) FIGS. 7A-7B. FIG. 7A. Im-PHFA, primary immortal human fetal astrocyte cells were infected with an MDA-9/Syntenin expression plasmid carrying adenovirus. 48 hrs post-infection both the control and MDA-9/Syntenin overexpressing cells were treated with DMSO or PDZ1i followed by seeding in a trans-well Matrigel invasion assay and stained after 24 hrs. FIG. 7B. T98G and U87 were treated with DMSO or PDZ1i and seeding in a trans-well Matrigel invasion assay and stained after 24 hrs. Invasion was quantified from 4 random fields. Data represents fold changes and average±S.D.
(§4) Invasion was measured using 24-well BioCoat cell culture inserts (BD Biosciences, Bedford, Mass.) with an 8-μm-porosity polyethylene terephthalate membrane coated with Matrigel Basement Membrane Matrix (100 μg/cm^2). Briefly, the Matrigel was allowed to rehydrate for 2 h at room temperature by adding warm, serum-free DMEM. The wells of the lower chamber were filled with medium containing 10% fetal bovine serum. […] Cells remaining on the upper surface of the filters were removed by wiping with a cotton swab, and invasion was determined by counting the cells that migrated to the lower side of the filter using at least 5 fields per insert at 100× magnification. […] Data from triplicate experiments were expressed as mean±95% confidence interval (CI).

T98G cells = experiment: trans-well Matrigel invasion assay; format: cell-based, human; conditions: PDZ1i versus DMSO
Method: as §3, §4

[4] = tested on: HBMEC barrier over GBM6 cells; experiment: HBMEC transwell blood brain barrier surrogate assay; format: in vitro ADME, human; conditions: 50 μM PDZ1i, 24 h, read out as GBM6 invasion
Method: FIG. 12. PDZ1i crosses the blood brain barrier (BBB). Primary human malignant glioma cells (GBM6) were seeded on the bottom well of a transwell chamber. In the top chamber, a monolayer of HBMEC cells separated GBM6 cells from media containing DMSO, 50 μM PDZ1i or Temozolomide (500 μM). After 24 h incubation in these conditions, invasion of GBM6 cells were analyzed by seeding in a trans-well Matrigel invasion assay and stained after 24 h. NB: PDZ1i treatment and invasion assay without HBMEC barrier. Error bars=f s.d.
A critical property of a potential therapeutic agent is its stability in the circulation and bioavailability in vivo. […] Additionally, when treating glioma pharmaceutically, the ability for a compound to cross the blood brain barrier (BBB) is paramount. […] Prior to in vivo efficacy studies, we evaluated the ability of the compound to cross the blood brain barrier using a target-based surrogate cellular assay. This method is preferred to direct in vivo measurements of compound concentration in the brain because of low sensitivity of the detection methods, and most importantly because of the presence of drug in various vascular spaces, i.e., the residual blood of the brain. […] After 24 h, we assessed the invasive ability of the treated GBM6 cells compared to pretreated controls. […]

U87 cells [5] = experiment: MTT assay after radiation; format: cell-based, human; conditions: radiation plus PDZ1i versus radiation plus DMSO
Method: as §1, §2

Cc1cc(NC(=O)c2nc3[nH]c4c(c(=O)n3n2)CCC4)c(C)cc1NC(=O)CCc1nnc(-c2ccccc2)o1 [113B7, N-(2,5-dimethyl-4-(3-(5-phenyl-1,3,4-oxadiazol-2-yl)propanamido)phenyl)-8-oxo-5,6,7,8-tetrahydro-4H-cyclopenta[d][1,2,4]triazolo[1,5-a]pyrimidine-2-carboxamide]
binding to protein-protein interaction panel [1]: no appreciable binding | radiosensitivity (colony formation) (ImPHFA cells): did not further radiosensitize | radiosensitivity (colony formation) (U87 cells [2]): markedly more radiosensitivity | MDA-9/Syntenin-induced invasion [3]: effective in inhibiting MDA-9/Syntenin-induced invasion | invasion (T98G cells): effectively inhibited invasion | crossing of the HBMEC barrier (blood brain barrier surrogate) [4]: effectively crossed the HBMEC barrier | proliferation following radiation (U87 cells [5]): significantly decreased
